Drawing on patent US12522623B2, “Small molecule STAT protein degraders” (THE REGENTS OF THE UNIVERSITY OF MICHIGAN, priority 2020, dated 2026), this text covers DC50 and IC50 for nine compounds.

Usually IC50 stands for the concentration needed to halve the response being measured. The low end stands for inhibition by little substance, the high end for a need for much substance.

Structures are written as SMILES.

Format in all cases: cell-based
The target in one test is T1, STAT3 (Homo sapiens, UniProt P40763).
T1 construct: endogenous in cells; host or cells: MOLM-16 (acute leukemia cells)
In words: Fluorescent immunoblotting of STAT3 protein in MOLM-16 cells (estimated DC50). The following applies: MOLM-16, 4 h. The procedure: (§1) In vitro cultured cells or xenograft tumors were lysed 1×Cell Lysis Buffer (Cell Signaling Technology, #9803), resolved by SDS-PAGE NuPAGE gel (Thermo Fisher Scientific), and transferred to a PVDF membrane (Bio Rad). For chemiluminescence immunoblotting, membranes were blocked for 1 h using 5% Blotting-Grade Blocker (#1706404, Bio Rad) in 1×Tris-buffered saline with Tween 20 (TBST, Pierce). Antibodies used were: rabbit mAbs for STAT3 (Cell Signaling Technology, #4368, #12640) and p-STAT3 (Y705) (Cell Signaling Technology, #9245, #52075). HRP conjugated goat anti-rabbit IgG (H+L) (#A27036) secondary antibodies was from Thermo Fisher Scientific. GAPDH (Santa Cruz Technology, sc-47724HRP) and actin (Santa Cruz Technology, sc-8432HRP, sc-47778HRP) were loading controls. For fluorescent immunoblotting, membranes were blocked using Odyssey TBS Blocker Buffer (LI-COR). IRDye 680RD and 800CW Dye-labeled secondary antibodies (LI-COR) were used. The washed membranes were scanned using Odyssey CLx imager (LI-COR). The intensity of Western blot signaling was quantitated using the Odyssey software or Image Studio V5.2 (LI-COR).

The next test deals with T2, STAT1 (Homo sapiens, UniProt P42224).
T2 construct: endogenous in cells; host or cells: MOLM-16 (acute leukemia cells)
T2 sequence (P42224 1-750): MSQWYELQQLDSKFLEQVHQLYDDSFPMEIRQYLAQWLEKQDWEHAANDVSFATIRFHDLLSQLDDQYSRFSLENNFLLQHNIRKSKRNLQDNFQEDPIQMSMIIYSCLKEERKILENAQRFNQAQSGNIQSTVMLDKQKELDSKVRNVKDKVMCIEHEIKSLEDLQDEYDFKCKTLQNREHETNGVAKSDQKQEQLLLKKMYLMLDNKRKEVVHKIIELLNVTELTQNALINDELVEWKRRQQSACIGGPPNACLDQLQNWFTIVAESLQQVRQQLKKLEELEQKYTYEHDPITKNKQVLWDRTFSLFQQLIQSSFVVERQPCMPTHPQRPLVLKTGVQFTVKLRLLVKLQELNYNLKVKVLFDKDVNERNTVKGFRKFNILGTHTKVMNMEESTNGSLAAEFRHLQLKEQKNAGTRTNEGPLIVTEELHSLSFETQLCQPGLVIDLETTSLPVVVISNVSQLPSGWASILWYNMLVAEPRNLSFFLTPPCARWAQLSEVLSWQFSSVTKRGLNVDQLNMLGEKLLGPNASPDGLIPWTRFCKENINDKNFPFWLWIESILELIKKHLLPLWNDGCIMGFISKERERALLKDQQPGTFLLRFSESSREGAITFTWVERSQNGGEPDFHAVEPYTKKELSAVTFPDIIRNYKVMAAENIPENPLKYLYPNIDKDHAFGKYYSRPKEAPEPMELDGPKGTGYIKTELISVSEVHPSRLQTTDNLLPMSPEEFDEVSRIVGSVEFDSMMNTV
The test is described as follows: Fluorescent immunoblotting of STAT1 protein in MOLM-16 cells (estimated DC50). The following applies: MOLM-16, 4 h. The procedure:
as §1

In the next test the test system is MOLM-16 cells. In words: Cell growth inhibition, 4-day proliferation assay (CellTiter-Glo). The conditions noted are these: MOLM16, 96 h; MOLM-16, 4 days. The procedure:
The effect of representative Compounds of the Disclosure on cell viability was determined in a 4-day proliferation assay. Cells were maintained in the appropriate culture medium at 37° C. and an atmosphere of 5% CO2. All the cell lines were used within three months of thawing fresh vials. Cells were seeded in 384-well white plates (Corning Costar) at a density of 2,000 cells/well in 25 μl of culture medium. Compounds were serially diluted in the appropriate medium, and 25 μl of the diluted compounds were added to the cells. After the addition of compounds, the cells were incubated at 37° C. in an atmosphere of 5% CO2 for 4 days. Cell viability was determined using the CellTiter-Glo® Luminescent Cell Viability Assay Kit (Promega, Madison, WI) according to the manufacturers' instructions. Essentially, 50 μl of CellTiter-Glo® Reagent was added to each well, and then the plates were incubated at room temperature for 20 minutes. The luminescent signal was measured using a Tecan multimode microplate reader (Tecan, Morrisville, NC). The readings were normalized to the DMSO-treated cells and the IC50 was calculated by nonlinear regression (four parameters sigmoid fitted with variable slope, least squares fit, and no constraint) analysis using the GraphPad Prism software.

T1 sequence (P40763 whole entry): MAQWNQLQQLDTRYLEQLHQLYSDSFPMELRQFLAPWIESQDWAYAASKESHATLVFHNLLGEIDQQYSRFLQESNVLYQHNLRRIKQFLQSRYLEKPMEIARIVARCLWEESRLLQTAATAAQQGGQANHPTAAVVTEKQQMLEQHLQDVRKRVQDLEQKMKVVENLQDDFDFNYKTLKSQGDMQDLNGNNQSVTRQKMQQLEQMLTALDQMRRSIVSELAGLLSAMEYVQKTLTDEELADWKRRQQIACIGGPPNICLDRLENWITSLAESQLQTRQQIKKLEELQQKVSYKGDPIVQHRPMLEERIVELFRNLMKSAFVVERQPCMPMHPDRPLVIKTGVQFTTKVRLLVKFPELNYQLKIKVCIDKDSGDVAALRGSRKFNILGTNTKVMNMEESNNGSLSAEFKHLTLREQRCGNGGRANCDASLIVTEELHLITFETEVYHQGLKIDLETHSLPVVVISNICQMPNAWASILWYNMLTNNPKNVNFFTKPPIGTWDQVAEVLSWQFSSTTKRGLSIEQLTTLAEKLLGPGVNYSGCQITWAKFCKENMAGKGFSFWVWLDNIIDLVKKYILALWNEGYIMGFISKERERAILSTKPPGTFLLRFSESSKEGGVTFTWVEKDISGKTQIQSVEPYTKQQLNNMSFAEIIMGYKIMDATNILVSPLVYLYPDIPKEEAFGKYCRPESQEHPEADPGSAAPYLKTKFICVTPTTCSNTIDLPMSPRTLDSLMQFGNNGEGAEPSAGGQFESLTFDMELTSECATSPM

Take `CCN1CC[C@H]2CC[C@@H](C(=O)N[C@@H](CCS(C)(=O)=O)C(=O)N[C@@H](Cc3ccc(C(C)(C)C)cc3)C(=O)N3CCC(CCC#Cc4cccc5c4CN(C4CCC(=O)NC4=O)C5=O)CC3)N2C(=O)[C@@H](NC(=O)c2cc3cc(C(F)(F)P(=O)(O)O)ccc3s2)C1` (stereo partly drawn) [Cpd. No. 18, ((2-(((5S,8S,10aR)-8-(((2S)-1-(((2S)-3-(4-(tert-butyl)phenyl)-1-(4-(4-(2-(2,6-dioxopiperidin-3-yl)-1-oxoisoindolin-4-yl)but-3-yn-1-yl)piperidin-1-yl)-1-oxopropan-2-yl)amino)-4-(methylsulfonyl)-1-oxobutan-2-yl)carbamoyl)-3-ethyl-6-oxodecahydropyrrolo[1,2-a][1,5]diazocin-5-yl)carbamoyl)benzo[b]thiophen-5-yl)difluoromethyl)phosphonic acid]: the results for the DC50 at STAT3 and at STAT1 were < 0.25 µM and > 1 µM, respectively.

As for `COC(=O)N1CC[C@H]2CC[C@@H](C(=O)N[C@@H](CCCN)C(=O)N[C@@H](Cc3ccc(C(C)(C)C)cc3)C(=O)N3CCC(CCC#Cc4cccc5c4CN(C4CCC(=O)NC4=O)C5=O)CC3)N2C(=O)[C@@H](NC(=O)c2cc3cc(C(F)(F)P(=O)(O)O)ccc3s2)C1` (stereo partly drawn) [Cpd. No. 1, ((2-(((5S,8S,10aR)-8-(((2S)-5-amino-1-(((2S)-3-(4-(tert-butyl)phenyl)-1-(4-(4-(2-(2,6-dioxopiperidin-3-yl)-1-oxoisoindolin-4-yl)but-3-yn-1-yl)piperidin-1-yl)-1-oxopropan-2-yl)amino)-1-oxopentan-2-yl)carbamoyl)-3-(methoxycarbonyl)-6-oxodecahydropyrrolo[1,2-a][1,5]diazocin-5-yl)carbamoyl)benzo[b]thiophen-5-yl)difluoromethyl)phosphonic acid], the DC50 on STAT3 was 1 µM; at STAT1, > 1 µM.

In the case of `CCN1CC[C@H]2CC[C@@H](C(=O)N[C@@H](CCn3ccnc3[N+](=O)[O-])C(=O)N[C@@H](Cc3ccc(C(C)(C)C)cc3)C(=O)N3CCC(CCC#Cc4cccc5c4CN(C4CCC(=O)NC4=O)C5=O)CC3)N2C(=O)[C@@H](NC(=O)c2cc3cc(C(F)(F)P(=O)(O)O)ccc3s2)C1` (stereo partly drawn) [Cpd. No. 21, ((2-(((5S,8S,10aR)-8-(((2S)-1-(((2S)-3-(4-(tert-butyl)phenyl)-1-(4-(4-(2-(2,6-dioxopiperidin-3-yl)-1-oxoisoindolin-4-yl)but-3-yn-1-yl)piperidin-1-yl)-1-oxopropan-2-yl)amino)-4-(2-nitro-1H-imidazol-1-yl)-1-oxobutan-2-yl)carbamoyl)-3-ethyl-6-oxodecahydropyrrolo[1,2-a][1,5]diazocin-5-yl)carbamoyl)benzo[b]thiophen-5-yl)difluoromethyl)phosphonic acid], the DC50 at STAT3 and at STAT1 was > 1 µM in each case.

For `CCN1CC[C@H]2CC[C@@H](C(=O)N[C@@H](CCn3ccnc3N)C(=O)N[C@@H](Cc3ccc(C(C)(C)C)cc3)C(=O)N3CCC(CCC#Cc4cccc5c4CN(C4CCC(=O)NC4=O)C5=O)CC3)N2C(=O)[C@@H](NC(=O)c2cc3cc(C(F)(F)P(=O)(O)O)ccc3s2)C1` (stereo partly drawn) [Cpd. No. 22, ((2-(((5S,8S,10aR)-8-(((2S)-4-(2-amino-1H-imidazol-1-yl)-1-(((2S)-3-(4-(tert-butyl)phenyl)-1-(4-(4-(2-(2,6-dioxopiperidin-3-yl)-1-oxoisoindolin-4-yl)but-3-yn-1-yl)piperidin-1-yl)-1-oxopropan-2-yl)amino)-1-oxobutan-2-yl)carbamoyl)-3-ethyl-6-oxodecahydropyrrolo[1,2-a][1,5]diazocin-5-yl)carbamoyl)benzo[b]thiophen-5-yl)difluoromethyl)phosphonic acid], the DC50 on STAT3 and at STAT1 was > 1 µM in each case.

On to `NC(=O)CC[C@H](NC(=O)[C@@H]1CC[C@@H]2CCN(C(=O)CCCCCC#Cc3cccc4c3CN(C3CCC(=O)NC3=O)C4=O)C[C@H](NC(=O)c3cc4cc(C(F)(F)P(=O)(O)O)ccc4s3)C(=O)N21)c1ncc(-c2ccc(F)cc2)s1` (stereo partly drawn) [Cpd. No. 9, ((2-(((5S,8S,10aR)-8-(((S)-4-amino-1-(5-(4-fluorophenyl)thiazol-2-yl)-4-oxobutyl)carbamoyl)-3-(8-(2-(2,6-dioxopiperidin-3-yl)-1-oxoisoindolin-4-yl)oct-7-ynoyl)-6-oxodecahydropyrrolo[1,2-a][1,5]diazocin-5-yl)carbamoyl)benzo[b]thiophen-5-yl)difluoromethyl)phosphonic acid], for which, on STAT3, the DC50 is 0.05 µM. The compound further returned an IC50 in the test with MOLM-16 cells of 0.06 µM.

`CCN1CC[C@H]2CC[C@@H](C(=O)N[C@@H](CCS(N)(=O)=O)C(=O)N[C@@H](Cc3ccc(C(C)(C)C)cc3)C(=O)N3CCC(CCC#Cc4cccc5c4CN(C4CCC(=O)NC4=O)C5=O)CC3)N2C(=O)[C@@H](NC(=O)c2cc3cc(C(F)(F)P(=O)(O)O)ccc3s2)C1` (stereo partly drawn) [Cpd. No. 20, ((2-(((5S,8S,10aR)-8-(((2S)-1-(((2S)-3-(4-(tert-butyl)phenyl)-1-(4-(4-(2-(2,6-dioxopiperidin-3-yl)-1-oxoisoindolin-4-yl)but-3-yn-1-yl)piperidin-1-yl)-1-oxopropan-2-yl)amino)-1-oxo-4-sulfamoylbutan-2-yl)carbamoyl)-3-ethyl-6-oxodecahydropyrrolo[1,2-a][1,5]diazocin-5-yl)carbamoyl)benzo[b]thiophen-5-yl)difluoromethyl)phosphonic acid]: the DC50 was < 0.25 µM at STAT3 and > 1 µM on STAT1.

As for `NC(=O)CC[C@H](NC(=O)[C@@H]1CC[C@@H]2CCN(C(=O)CCCCCC#Cc3cccc4c3CN(C3CCC(=O)NC3=O)C4=O)C[C@H](NC(=O)c3cc4cc(C(F)(F)P(=O)(O)O)ccc4s3)C(=O)N21)c1nc(-c2ccccc2)cs1` (stereo partly drawn) [Cpd. No. 4, ((2-(((5S,8S,10aR)-8-(((S)-4-amino-4-oxo-1-(4-phenylthiazol-2-yl)butyl)carbamoyl)-3-(8-(2-(2,6-dioxopiperidin-3-yl)-1-oxoisoindolin-4-yl)oct-7-ynoyl)-6-oxodecahydropyrrolo[1,2-a][1,5]diazocin-5-yl)carbamoyl)benzo[b]thiophen-5-yl)difluoromethyl)phosphonic acid], the DC50 at STAT3 is 0.2 µM. The same compound registered an IC50 in the test with MOLM-16 cells of 0.14 µM.

For `CCN1CC[C@H]2CC[C@@H](C(=O)N[C@@H](CCn3ccnc3)C(=O)N[C@@H](Cc3ccc(C(C)(C)C)cc3)C(=O)N3CCC(CCC#Cc4cccc5c4CN(C4CCC(=O)NC4=O)C5=O)CC3)N2C(=O)[C@@H](NC(=O)c2cc3cc(C(F)(F)P(=O)(O)O)ccc3s2)C1` (stereo partly drawn) [Cpd. No. 19], the DC50 on STAT3 is 0.25 µM; on STAT1, > 1 µM.

Consider `NC(=O)CC[C@H](NC(=O)[C@@H]1CC[C@@H]2CCN(C(=O)CCCCCC#Cc3cccc4c3CN(C3CCC(=O)NC3=O)C4=O)C[C@H](NC(=O)c3cc4cc(C(F)(F)P(=O)(O)O)ccc4s3)C(=O)N21)c1nc(Cc2ccccc2)cs1` (stereo partly drawn) [Cpd. No. 3, ((2-(((5S,8S,10aR)-8-(((S)-4-amino-1-(4-benzylthiazol-2-yl)-4-oxobutyl)carbamoyl)-3-(8-(2-(2,6-dioxopiperidin-3-yl)-1-oxoisoindolin-4-yl)oct-7-ynoyl)-6-oxodecahydropyrrolo[1,2-a][1,5]diazocin-5-yl)carbamoyl)benzo[b]thiophen-5-yl)difluoromethyl)phosphonic acid], for which the DC50 at STAT3 is 0.1 µM. In the test with MOLM-16 cells, this compound displayed an IC50 of 0.17 µM.
